# From patent US20170071944A1, “MODULATORS OF TOLL-LIKE RECEPTORS FOR THE TREATMENT OF HIV” (Gilead Sciences, Inc., priority 2015, published 2017)
# Test system: HIV-specific polyfunctional CD8 T cells
# Assay: Induced HIV-specific polyfunctional CD8+ T cells in PBMC cultures from HIV-1 infected subjects on cART
# Assay type: cell-based, human
# Conditions: for Median HIV-specific polyfunctional CD8 T cells (% proliferating CD8+ cells double positive for IFN-γ and TNF-α): 5 subjects, vehicle 0.73% (Example 15 group), 0.13% (Example 98 group)
compound,measurement,setting,value
CCCC[C@H](CO)Nc1nc(N)nc2cccnc12 [Example 15],Patients in whom increases were seen,100 nM,3 of 5
same,Median HIV-specific polyfunctional CD8 T cells (% proliferating CD8+ cells double positive for IFN-γ and TNF-α),100 nM with HIV peptide pool,0.99%
same,Patients in whom increases were seen,1000 nM,4 of 5
same,Increase of median HIV-specific polyfunctional CD8 T cells,"1000 nM combined with the HIV specific peptide pool, p<0.05",2.7 fold
same,Median HIV-specific polyfunctional CD8 T cells (% proliferating CD8+ cells double positive for IFN-γ and TNF-α),1000 nM with HIV peptide pool,2.01%
